PubChem BioAssay AID1918945 (Molecular Pharmacology Branch, DTP, NCI, 2023)

System: 883617-216-R-J1-PDC complex spheroid viability
Assay: Anticancer human tumor 883617-216-R-J1-PDC patient-derived bladder carcinoma cell line growth inhibition
Details: for IC50: curve of first compound; for viability, T/C: stronger effect = lower value
Summary of the method: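 Complex spheroids of tumor cells with HUVEC and human MSCs, exposed to iadademstat combined with other agents. Each agent tested in half-log steps from near clinical Cmax (else 10 microM top), DMSO ≤0.25%.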

[1] = second compound 0.1 µM, first compound 0.00949 µM
[2] = second compound 0.1 µM, first compound 0.03 µM
[3] = second compound 0.1 µM, first compound 0.0949 µM
[4] = second compound 0.1 µM, first compound 0.3 µM
[5] = second compound 0.1 µM, first compound 0.949 µM
[6] = second compound 0.1 µM, first compound 3 µM
[7] = second compound 0.316 µM, first compound 0.00949 µM
[8] = second compound 0.316 µM, first compound 0.03 µM
[9] = second compound 0.316 µM, first compound 0.0949 µM
[10] = second compound 0.316 µM, first compound 0.3 µM
[11] = second compound 0.316 µM, first compound 0.949 µM
[12] = second compound 0.316 µM, first compound 3 µM
[13] = second compound 1 µM, first compound 0.00949 µM
[14] = second compound 1 µM, first compound 0.03 µM
[15] = second compound 1 µM, first compound 0.0949 µM
[16] = second compound 1 µM, first compound 0.3 µM
[17] = second compound 1 µM, first compound 0.949 µM
[18] = second compound 1 µM, first compound 3 µM
[19] = second compound 3.16 µM, first compound 0.00949 µM
[20] = second compound 3.16 µM, first compound 0.03 µM
[21] = second compound 3.16 µM, first compound 0.0949 µM
[22] = second compound 3.16 µM, first compound 0.3 µM
[23] = second compound 3.16 µM, first compound 0.949 µM
[24] = second compound 3.16 µM, first compound 3 µM
[25] = second compound 10 µM, first compound 0.00949 µM
[26] = second compound 10 µM, first compound 0.03 µM
[27] = second compound 10 µM, first compound 0.0949 µM
[28] = second compound 10 µM, first compound 0.3 µM
[29] = second compound 10 µM, first compound 0.949 µM
[30] = second compound 10 µM, first compound 3 µM
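Also: exposure lasted seven days after three days of spheroid growth.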
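For viability, T/C in this document: 100% = DMSO vehicle control luminescence.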

Compound `NS(=O)(=O)OCC1CC(n2ccc3c(NC4CCc5ccccc54)ncnc32)CC1O` (stereo not given) + NC1CC1c1ccc(-c2cccc(O)c2)cc1 has an IC50 (second compound 0.1 µM) of 221 nM, an IC50 (second compound 0.316 µM) of 230 nM and an IC50 (second compound 1 µM) of 219 nM. It also gave an IC50 (second compound 3.16 µM) of 202 nM, an IC50 (second compound 10 µM) of 155 nM and a viability, T/C [1] of 123%. It also gave a viability, T/C [2] of 144%, a viability, T/C [3] of 112% and a viability, T/C [4] of 27.5%. It also gave a viability, T/C [5] of 10.8%, a viability, T/C [6] of 8.35% and a viability, T/C [7] of 124%. The viability, T/C [8] was 150%, the viability, T/C [9] was 127% and the viability, T/C [10] was 26.7%. For the same compound, the viability, T/C [11] was 12.9%, the viability, T/C [12] was 8.2% and the viability, T/C [13] was 135%. It also gave a viability, T/C [14] of 159%, a viability, T/C [15] of 111% and a viability, T/C [16] of 28.3%. It also gave a viability, T/C [17] of 13%, a viability, T/C [18] of 10.2% and a viability, T/C [19] of 122%. It also gave a viability, T/C [20] of 157%, a viability, T/C [21] of 94.5% and a viability, T/C [22] of 29.7%. For the same compound, the viability, T/C [23] was 10.5%, the viability, T/C [24] was 9.87% and the viability, T/C [25] was 126%. For the same compound, the viability, T/C [26] was 139%, the viability, T/C [27] was 71.8% and the viability, T/C [28] was 27%. The viability, T/C [29] was 12.9% and the viability, T/C [30] was 9.23%.
Work on `Nc1ccccc1NC(=O)c1ccc(CNC(=O)OCc2cccnc2)cc1` + NC1CC1c1ccc(-c2cccc(O)c2)cc1 yielded an IC50 (second compound 0.1 µM) of 190 nM, an IC50 (second compound 0.316 µM) of 181 nM and an IC50 (second compound 1 µM) of 176 nM. It also gave an IC50 (second compound 3.16 µM) of 146 nM, an IC50 (second compound 10 µM) of 103 nM and a viability, T/C [1] of 103%. It also gave a viability, T/C [2] of 106%, a viability, T/C [3] of 64.8% and a viability, T/C [4] of 36.2%. It also gave a viability, T/C [5] of 19.2%, a viability, T/C [6] of 0.5% and a viability, T/C [7] of 110%. For the same compound, the viability, T/C [8] was 96%, the viability, T/C [9] was 64.8% and the viability, T/C [10] was 36.9%. It also gave a viability, T/C [11] of 15.8%, a viability, T/C [12] of 0.25% and a viability, T/C [13] of 116%. For the same compound, the viability, T/C [14] was 96.6%, the viability, T/C [15] was 62.7% and the viability, T/C [16] was 39.1%. For the same compound, the viability, T/C [17] was 12.6%, the viability, T/C [18] was 0.26% and the viability, T/C [19] was 115%. The viability, T/C [20] was 91.2%, the viability, T/C [21] was 57.3% and the viability, T/C [22] was 35.6%. The viability, T/C [23] was 11.9%, the viability, T/C [24] was 0.25% and the viability, T/C [25] was 91.5%. The viability, T/C [26] was 80.7%, the viability, T/C [27] was 43.5% and the viability, T/C [28] was 33.9%. For the same compound, the viability, T/C [29] was 13.6% and the viability, T/C [30] was 0.23%.
Compound `O=C(C=Cc1cccc(S(=O)(=O)Nc2ccccc2)c1)NO` + NC1CC1c1ccc(-c2cccc(O)c2)cc1 has an IC50 (second compound 0.1 µM) of 89.8 nM, an IC50 (second compound 0.316 µM) of 89.8 nM and an IC50 (second compound 1 µM) of 69.8 nM. The IC50 (second compound 3.16 µM) was 59.8 nM, the IC50 (second compound 10 µM) was 36.7 nM and the viability, T/C [1] was 105%. For the same compound, the viability, T/C [2] was 76.1%, the viability, T/C [3] was 44.8% and the viability, T/C [4] was 30.9%. For the same compound, the viability, T/C [5] was 12.9%, the viability, T/C [6] was 0.56% and the viability, T/C [7] was 116%. It also gave a viability, T/C [8] of 83.8%, a viability, T/C [9] of 42.7% and a viability, T/C [10] of 28.7%. It also gave a viability, T/C [11] of 12%, a viability, T/C [12] of 0.43% and a viability, T/C [13] of 106%. For the same compound, the viability, T/C [14] was 72.3%, the viability, T/C [15] was 38.5% and the viability, T/C [16] was 25.8%. For the same compound, the viability, T/C [17] was 11.9%, the viability, T/C [18] was 0.47% and the viability, T/C [19] was 105%. For the same compound, the viability, T/C [20] was 67.7%, the viability, T/C [21] was 35.5% and the viability, T/C [22] was 23.5%. The viability, T/C [23] was 10.8%, the viability, T/C [24] was 0.43% and the viability, T/C [25] was 79.6%. The viability, T/C [26] was 53.2%, the viability, T/C [27] was 30.7% and the viability, T/C [28] was 23.4%. It also gave a viability, T/C [29] of 11.6% and a viability, T/C [30] of 0.29%.
